One block for each compound: values may come before it.
How the values were obtained:
Experiment in all cases: radiometric filter-binding kinase assay
MAPKAPK3 (human) = MAPKAPK3 (human) (UniProt Q16644)
[1] = test system: RPS6KB1 (human), P23443 [T412E]
MAPK14 (human) = MAPK14 (human) (UniProt Q16539)
MKNK2 (human) = MKNK2 (human) (UniProt Q9HBH9)
RPS6KA1 KD1 KD2 (human) = RPS6KA1 KD1 KD2 (human) (UniProt Q15418)
YES1 (human) = YES1 (human) (UniProt P07947)
FLT1 (human) = FLT1 (human) (UniProt P17948)
CSNK1D (human) = CSNK1D (human) (UniProt P48730)
RPS6KA5 KD1 KD2 (human) = RPS6KA5 KD1 KD2 (human) (UniProt O75582)
BTK (human) = BTK (human) (UniProt Q06187)
NTRK1 (human) = NTRK1 (human) (UniProt P04629)
CSNK2A1 (human) = CSNK2A1 (human) (UniProt P68400)
MAP3K1 (human) = MAP3K1 (human) (UniProt Q13233)
IRAK4 (human) = IRAK4 (human) (UniProt Q9NWZ3)
RIPK2 (human) = RIPK2 (human) (UniProt O43353)
Sequence of RIPK2 (human) (O43353 whole entry, looked up): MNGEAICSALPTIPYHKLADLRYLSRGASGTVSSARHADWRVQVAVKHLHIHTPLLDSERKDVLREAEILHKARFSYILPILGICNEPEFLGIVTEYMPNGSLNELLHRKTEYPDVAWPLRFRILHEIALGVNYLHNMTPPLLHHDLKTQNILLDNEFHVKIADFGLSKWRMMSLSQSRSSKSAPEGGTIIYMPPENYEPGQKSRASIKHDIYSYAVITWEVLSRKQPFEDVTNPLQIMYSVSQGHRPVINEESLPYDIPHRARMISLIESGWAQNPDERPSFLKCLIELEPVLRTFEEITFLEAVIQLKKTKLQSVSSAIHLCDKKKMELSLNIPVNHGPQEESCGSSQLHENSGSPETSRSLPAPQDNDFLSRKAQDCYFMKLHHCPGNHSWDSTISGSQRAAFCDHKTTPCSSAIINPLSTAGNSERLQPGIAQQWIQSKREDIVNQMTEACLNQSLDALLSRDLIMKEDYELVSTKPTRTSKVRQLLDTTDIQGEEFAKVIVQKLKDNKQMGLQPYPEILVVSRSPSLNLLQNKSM

MAP3K9 (human) = MAP3K9 (human) (UniProt P80192)
MAPK15 (human) = MAPK15 (human) (UniProt Q8TD08)
[2] = molecular target: STK11 CAB39 STRADA (human) (UniProt Q9Y376+Q7RTN6+Q15831)
[3] = test system: AKT2 (human), P31751 [S474D]
Sequence of AKT2 (human), P31751 [S474D] (P31751 whole entry S474D, looked up): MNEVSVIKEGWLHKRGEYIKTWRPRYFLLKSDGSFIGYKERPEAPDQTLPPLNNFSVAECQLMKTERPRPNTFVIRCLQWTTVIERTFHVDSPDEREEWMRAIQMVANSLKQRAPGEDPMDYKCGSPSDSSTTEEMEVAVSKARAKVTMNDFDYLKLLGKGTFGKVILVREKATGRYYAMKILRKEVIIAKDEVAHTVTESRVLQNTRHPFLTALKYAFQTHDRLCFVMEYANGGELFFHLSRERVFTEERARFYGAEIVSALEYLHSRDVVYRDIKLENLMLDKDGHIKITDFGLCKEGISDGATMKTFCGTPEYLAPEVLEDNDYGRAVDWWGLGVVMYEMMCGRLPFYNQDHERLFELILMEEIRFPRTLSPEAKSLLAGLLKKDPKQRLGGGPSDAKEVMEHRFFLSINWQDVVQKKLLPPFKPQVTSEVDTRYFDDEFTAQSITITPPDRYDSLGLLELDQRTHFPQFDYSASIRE

AURKA (human) = AURKA (human) (UniProt O14965)
Sequence of AURKA (human) (O14965 whole entry, looked up): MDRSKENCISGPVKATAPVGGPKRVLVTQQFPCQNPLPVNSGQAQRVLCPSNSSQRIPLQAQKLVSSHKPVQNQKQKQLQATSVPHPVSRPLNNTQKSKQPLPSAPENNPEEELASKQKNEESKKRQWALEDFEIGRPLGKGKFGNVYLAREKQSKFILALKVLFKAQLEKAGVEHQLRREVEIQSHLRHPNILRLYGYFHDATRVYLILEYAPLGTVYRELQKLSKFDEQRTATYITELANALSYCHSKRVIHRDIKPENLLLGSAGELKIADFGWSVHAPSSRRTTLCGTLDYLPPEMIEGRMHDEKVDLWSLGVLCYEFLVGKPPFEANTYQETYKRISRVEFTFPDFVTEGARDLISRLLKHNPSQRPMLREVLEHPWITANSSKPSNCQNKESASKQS

MAPK11 (human) = MAPK11 (human) (UniProt Q15759)
NEK6 (human) = NEK6 (human) (UniProt Q9HC98)
HIPK2 (human) = HIPK2 (human) (UniProt Q9H2X6)
Sequence of HIPK2 (human) (Q9H2X6 whole entry, looked up): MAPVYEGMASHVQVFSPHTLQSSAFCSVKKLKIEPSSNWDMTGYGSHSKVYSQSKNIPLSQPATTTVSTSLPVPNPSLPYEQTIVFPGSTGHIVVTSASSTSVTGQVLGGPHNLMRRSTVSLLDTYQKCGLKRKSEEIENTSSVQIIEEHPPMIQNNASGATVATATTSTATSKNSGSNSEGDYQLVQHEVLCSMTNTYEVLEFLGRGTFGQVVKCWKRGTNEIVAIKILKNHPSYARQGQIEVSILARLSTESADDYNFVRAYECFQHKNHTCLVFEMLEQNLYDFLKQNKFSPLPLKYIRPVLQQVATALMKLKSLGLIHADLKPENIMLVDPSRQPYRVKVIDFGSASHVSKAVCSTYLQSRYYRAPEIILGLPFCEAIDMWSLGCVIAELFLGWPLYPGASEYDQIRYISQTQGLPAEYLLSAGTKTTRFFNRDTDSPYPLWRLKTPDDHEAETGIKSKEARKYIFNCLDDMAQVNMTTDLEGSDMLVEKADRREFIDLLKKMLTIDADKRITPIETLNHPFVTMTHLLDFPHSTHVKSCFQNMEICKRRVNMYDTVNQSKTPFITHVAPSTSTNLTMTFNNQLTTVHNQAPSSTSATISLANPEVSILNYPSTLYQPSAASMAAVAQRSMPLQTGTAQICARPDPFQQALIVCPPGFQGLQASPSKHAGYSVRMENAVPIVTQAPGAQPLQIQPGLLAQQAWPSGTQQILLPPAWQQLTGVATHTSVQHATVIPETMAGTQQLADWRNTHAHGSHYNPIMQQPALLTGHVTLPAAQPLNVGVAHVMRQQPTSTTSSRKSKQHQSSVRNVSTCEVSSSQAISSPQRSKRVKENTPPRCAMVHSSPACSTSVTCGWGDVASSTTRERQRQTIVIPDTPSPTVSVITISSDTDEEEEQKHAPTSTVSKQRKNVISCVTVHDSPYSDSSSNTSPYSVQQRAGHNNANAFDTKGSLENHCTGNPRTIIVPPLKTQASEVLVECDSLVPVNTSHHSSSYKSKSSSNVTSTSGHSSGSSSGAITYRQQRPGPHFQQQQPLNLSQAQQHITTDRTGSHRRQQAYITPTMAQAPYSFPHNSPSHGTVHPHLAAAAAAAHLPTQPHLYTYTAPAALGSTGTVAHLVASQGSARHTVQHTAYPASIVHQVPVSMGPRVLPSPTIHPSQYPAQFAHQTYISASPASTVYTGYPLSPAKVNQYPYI

SRPK1 (human) = SRPK1 (human) (UniProt Q96SB4)
Sequence of SRPK1 (human) (Q96SB4 whole entry, looked up): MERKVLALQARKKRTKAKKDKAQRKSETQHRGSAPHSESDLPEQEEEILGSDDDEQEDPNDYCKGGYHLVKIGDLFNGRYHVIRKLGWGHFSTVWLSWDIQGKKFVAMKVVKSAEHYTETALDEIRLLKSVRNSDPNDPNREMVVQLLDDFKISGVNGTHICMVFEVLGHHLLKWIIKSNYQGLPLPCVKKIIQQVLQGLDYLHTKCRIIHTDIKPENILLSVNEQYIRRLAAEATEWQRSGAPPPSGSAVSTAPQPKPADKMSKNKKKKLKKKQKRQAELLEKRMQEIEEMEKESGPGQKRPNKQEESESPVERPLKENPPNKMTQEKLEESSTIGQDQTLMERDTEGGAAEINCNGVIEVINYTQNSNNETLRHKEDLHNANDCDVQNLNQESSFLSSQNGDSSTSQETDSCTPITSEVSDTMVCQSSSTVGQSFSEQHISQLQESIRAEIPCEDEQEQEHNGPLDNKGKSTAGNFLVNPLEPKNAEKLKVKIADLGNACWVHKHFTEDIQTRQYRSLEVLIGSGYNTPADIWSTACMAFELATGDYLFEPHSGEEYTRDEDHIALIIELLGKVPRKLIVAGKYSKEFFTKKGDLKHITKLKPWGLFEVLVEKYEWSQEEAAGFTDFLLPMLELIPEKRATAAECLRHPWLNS

HIPK1 (human) = HIPK1 (human) (UniProt Q86Z02)
JAK2 JH1 JH2 (human) = JAK2 JH1 JH2 (human) (UniProt O60674)
MAPK1 (human) = MAPK1 (human) (UniProt P28482)
DYRK2 (human) = DYRK2 (human) (UniProt Q92630)
INSR (human) = INSR (human) (UniProt P06213)
PRKCA (human) = PRKCA (human) (UniProt P17252)
NEK2 (human) = NEK2 (human) (UniProt P51955)
MARK4 (human) = MARK4 (human) (UniProt Q96L34)
CLK2 (human) = CLK2 (human) (UniProt P49760)
MARK3 (human) = MARK3 (human) (UniProt P27448)
INSRR (human) = INSRR (human) (UniProt P14616)

Sequence of MAPK14 (human) (Q16539 whole entry, looked up): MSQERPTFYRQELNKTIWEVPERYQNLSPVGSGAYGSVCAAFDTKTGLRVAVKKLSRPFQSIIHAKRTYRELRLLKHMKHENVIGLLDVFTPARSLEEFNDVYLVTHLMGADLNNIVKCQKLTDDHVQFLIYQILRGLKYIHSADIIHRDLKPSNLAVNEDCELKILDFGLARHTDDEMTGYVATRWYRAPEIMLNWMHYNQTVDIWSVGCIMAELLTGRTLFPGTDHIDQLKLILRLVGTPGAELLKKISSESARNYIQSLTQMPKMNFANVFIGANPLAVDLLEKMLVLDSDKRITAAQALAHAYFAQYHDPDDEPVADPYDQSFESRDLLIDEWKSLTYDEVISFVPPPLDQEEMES
Sequence of MKNK2 (human) (Q9HBH9 whole entry, looked up): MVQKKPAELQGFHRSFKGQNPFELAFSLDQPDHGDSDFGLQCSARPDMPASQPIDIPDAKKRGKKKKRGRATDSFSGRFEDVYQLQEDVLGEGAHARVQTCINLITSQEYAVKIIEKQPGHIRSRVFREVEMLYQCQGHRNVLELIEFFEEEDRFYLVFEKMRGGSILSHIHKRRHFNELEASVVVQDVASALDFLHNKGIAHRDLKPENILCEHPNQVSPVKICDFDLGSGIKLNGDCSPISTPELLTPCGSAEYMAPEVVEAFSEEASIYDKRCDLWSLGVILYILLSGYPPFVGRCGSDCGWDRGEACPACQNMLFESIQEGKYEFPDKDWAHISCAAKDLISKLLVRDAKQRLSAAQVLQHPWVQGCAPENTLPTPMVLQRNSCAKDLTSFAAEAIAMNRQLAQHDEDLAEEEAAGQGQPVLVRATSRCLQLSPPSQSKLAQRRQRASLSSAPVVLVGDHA

residual activity (MAPKAPK3 (human); compound 0.1 µM): 115%
residual activity (MAPKAPK3 (human); compound 1.0 µM): 119%
residual activity (MAPKAPK3 (human); compound 10.0 µM): 123%
residual activity ([1]; compound 0.1 µM): 114%
residual activity ([1]; compound 1.0 µM): 108%
residual activity ([1]; compound 10.0 µM): 100%
residual activity (MAPK14 (human); compound 0.1 µM): 95%
residual activity (MAPK14 (human); compound 1.0 µM): 87%
residual activity (MAPK14 (human); compound 10.0 µM): 80%
residual activity (MKNK2 (human); compound 0.1 µM): 111%
residual activity (MKNK2 (human); compound 1.0 µM): 98%
residual activity (MKNK2 (human); compound 10.0 µM): 102%
residual activity (RPS6KA1 KD1 KD2 (human); compound 0.1 µM): 95%
residual activity (RPS6KA1 KD1 KD2 (human); compound 1.0 µM): 98%
residual activity (RPS6KA1 KD1 KD2 (human); compound 10.0 µM): 81%
residual activity (YES1 (human); compound 0.1 µM): 123%
residual activity (YES1 (human); compound 1.0 µM): 100%
residual activity (YES1 (human); compound 10.0 µM): 109%
residual activity (FLT1 (human); compound 0.1 µM): 95%
residual activity (FLT1 (human); compound 1.0 µM): 81%
residual activity (FLT1 (human); compound 10.0 µM): 83%
residual activity (CSNK1D (human); compound 0.1 µM): 88%
residual activity (CSNK1D (human); compound 1.0 µM): 87%
residual activity (CSNK1D (human); compound 10.0 µM): 81%
residual activity (RPS6KA5 KD1 KD2 (human); compound 0.1 µM): 110%
residual activity (RPS6KA5 KD1 KD2 (human); compound 1.0 µM): 104%
residual activity (RPS6KA5 KD1 KD2 (human); compound 10.0 µM): 95%
residual activity (BTK (human); compound 1.0 µM): 103%
residual activity (BTK (human); compound 10.0 µM): 103%
residual activity (NTRK1 (human); compound 0.1 µM): 103%
residual activity (NTRK1 (human); compound 1.0 µM): 110%
residual activity (NTRK1 (human); compound 10.0 µM): 86%
residual activity (CSNK2A1 (human); compound 0.1 µM): 78%
residual activity (CSNK2A1 (human); compound 1.0 µM): 87%
residual activity (CSNK2A1 (human); compound 10.0 µM): 83%
residual activity (MAP3K1 (human); compound 0.1 µM): 93%
residual activity (MAP3K1 (human); compound 1.0 µM): 99%
residual activity (MAP3K1 (human); compound 10.0 µM): 89%
residual activity (IRAK4 (human); compound 0.1 µM): 72%
residual activity (IRAK4 (human); compound 1.0 µM): 66%
residual activity (IRAK4 (human); compound 10.0 µM): 67%
residual activity (RIPK2 (human); compound 0.1 µM): 119%
residual activity (RIPK2 (human); compound 1.0 µM): 95%
residual activity (RIPK2 (human); compound 10.0 µM): 100%
residual activity (MAP3K9 (human); compound 0.1 µM): 105%
residual activity (MAP3K9 (human); compound 1.0 µM): 108%
residual activity (MAP3K9 (human); compound 10.0 µM): 100%
residual activity ([2]; compound 0.1 µM): 93%
residual activity ([2]; compound 1.0 µM): 89%
residual activity ([2]; compound 10.0 µM): 98%
residual activity ([3]; compound 0.1 µM): 85%
residual activity ([3]; compound 1.0 µM): 90%
residual activity ([3]; compound 10.0 µM): 86%
residual activity (AURKA (human); compound 0.1 µM): 116%
residual activity (AURKA (human); compound 1.0 µM): 105%
residual activity (AURKA (human); compound 10.0 µM): 92%
residual activity (MAPK11 (human); compound 0.1 µM): 99%
residual activity (MAPK11 (human); compound 1.0 µM): 106%
residual activity (MAPK11 (human); compound 10.0 µM): 95%
residual activity (NEK6 (human); compound 0.1 µM): 92%
residual activity (NEK6 (human); compound 1.0 µM): 86%
residual activity (NEK6 (human); compound 10.0 µM): 84%
residual activity (HIPK2 (human); compound 0.1 µM): 108%
residual activity (HIPK2 (human); compound 1.0 µM): 106%
residual activity (HIPK2 (human); compound 10.0 µM): 106%
residual activity (SRPK1 (human); compound 0.1 µM): 92%
residual activity (SRPK1 (human); compound 1.0 µM): 89%
residual activity (SRPK1 (human); compound 10.0 µM): 83%
residual activity (HIPK1 (human); compound 0.1 µM): 92%
residual activity (HIPK1 (human); compound 1.0 µM): 112%
residual activity (HIPK1 (human); compound 10.0 µM): 94%
residual activity (JAK2 JH1 JH2 (human); compound 0.1 µM): 118%
residual activity (JAK2 JH1 JH2 (human); compound 1.0 µM): 98%
residual activity (JAK2 JH1 JH2 (human); compound 10.0 µM): 100%
residual activity (MAPK1 (human); compound 0.1 µM): 98%
residual activity (MAPK1 (human); compound 1.0 µM): 90%
residual activity (MAPK1 (human); compound 10.0 µM): 100%
residual activity (DYRK2 (human); compound 0.1 µM): 116%
residual activity (DYRK2 (human); compound 1.0 µM): 124%
residual activity (DYRK2 (human); compound 10.0 µM): 119%
residual activity (INSR (human); compound 0.1 µM): 107%
residual activity (INSR (human); compound 10.0 µM): 99%
residual activity (PRKCA (human); compound 0.1 µM): 96%
residual activity (PRKCA (human); compound 1.0 µM): 88%
residual activity (PRKCA (human); compound 10.0 µM): 89%
residual activity (NEK2 (human); compound 0.1 µM): 110%
residual activity (NEK2 (human); compound 1.0 µM): 103%
residual activity (NEK2 (human); compound 10.0 µM): 108%
residual activity (MARK4 (human); compound 0.1 µM): 90%
residual activity (MARK4 (human); compound 1.0 µM): 89%
residual activity (MARK4 (human); compound 10.0 µM): 93%
residual activity (CLK2 (human); compound 0.1 µM): 106%
residual activity (CLK2 (human); compound 1.0 µM): 104%
residual activity (CLK2 (human); compound 10.0 µM): 97%
residual activity (MARK3 (human); compound 0.1 µM): 101%
residual activity (MARK3 (human); compound 1.0 µM): 107%
residual activity (MARK3 (human); compound 10.0 µM): 105%
residual activity (INSRR (human); compound 0.1 µM): 99%
residual activity (INSRR (human); compound 1.0 µM): 94%
residual activity (INSRR (human); compound 10.0 µM): 100%
Compound: CCCCCc1ccc(/C=C/[C@H](O)[C@@H](CO)NC)cc1
residual activity (MAPK15 (human); compound 0.1 µM): 82%
residual activity (MAPK15 (human); compound 1.0 µM): 86%
residual activity (MAPK15 (human); compound 10.0 µM): 77%

residual activity (MAPKAPK3 (human); compound 0.1 µM): 107%
residual activity (MAPKAPK3 (human); compound 1.0 µM): 97%
residual activity ([1]; compound 0.1 µM): 108%
residual activity ([1]; compound 1.0 µM): 105%
residual activity (MAPK14 (human); compound 0.1 µM): 56%
residual activity (MAPK14 (human); compound 1.0 µM): 16%
residual activity (MKNK2 (human); compound 0.1 µM): 81%
residual activity (MKNK2 (human); compound 1.0 µM): 91%
residual activity (RPS6KA1 KD1 KD2 (human); compound 0.1 µM): 110%
residual activity (RPS6KA1 KD1 KD2 (human); compound 1.0 µM): 95%
residual activity (YES1 (human); compound 0.1 µM): 106%
residual activity (YES1 (human); compound 1.0 µM): 70%
residual activity (FLT1 (human); compound 0.1 µM): 27%
residual activity (FLT1 (human); compound 1.0 µM): 8%
residual activity (CSNK1D (human); compound 0.1 µM): 90%
residual activity (CSNK1D (human); compound 1.0 µM): 46%
residual activity (RPS6KA5 KD1 KD2 (human); compound 0.1 µM): 110%
residual activity (RPS6KA5 KD1 KD2 (human); compound 1.0 µM): 101%
residual activity (BTK (human); compound 0.1 µM): 110%
residual activity (BTK (human); compound 1.0 µM): 104%
residual activity (NTRK1 (human); compound 0.1 µM): 118%
residual activity (NTRK1 (human); compound 1.0 µM): 99%
residual activity (CSNK2A1 (human); compound 0.1 µM): 102%
residual activity (CSNK2A1 (human); compound 1.0 µM): 104%
residual activity (MAP3K1 (human); compound 0.1 µM): 130%
residual activity (MAP3K1 (human); compound 1.0 µM): 111%
residual activity (IRAK4 (human); compound 0.1 µM): 101%
residual activity (IRAK4 (human); compound 1.0 µM): 99%
residual activity (RIPK2 (human); compound 0.1 µM): 26%
residual activity (RIPK2 (human); compound 1.0 µM): 9%
residual activity (MAP3K9 (human); compound 0.1 µM): 96%
residual activity (MAP3K9 (human); compound 1.0 µM): 86%
residual activity ([2]; compound 0.1 µM): 101%
residual activity ([2]; compound 1.0 µM): 99%
residual activity ([3]; compound 0.1 µM): 108%
residual activity ([3]; compound 1.0 µM): 96%
residual activity (AURKA (human); compound 0.1 µM): 120%
residual activity (AURKA (human); compound 1.0 µM): 107%
residual activity (MAPK11 (human); compound 0.1 µM): 89%
residual activity (MAPK11 (human); compound 1.0 µM): 61%
residual activity (NEK6 (human); compound 0.1 µM): 107%
residual activity (NEK6 (human); compound 1.0 µM): 100%
residual activity (HIPK2 (human); compound 0.1 µM): 104%
residual activity (HIPK2 (human); compound 1.0 µM): 95%
residual activity (SRPK1 (human); compound 0.1 µM): 101%
residual activity (SRPK1 (human); compound 1.0 µM): 84%
residual activity (HIPK1 (human); compound 0.1 µM): 96%
residual activity (HIPK1 (human); compound 1.0 µM): 98%
residual activity (JAK2 JH1 JH2 (human); compound 0.1 µM): 107%
residual activity (JAK2 JH1 JH2 (human); compound 1.0 µM): 93%
residual activity (MAPK1 (human); compound 0.1 µM): 104%
residual activity (MAPK1 (human); compound 1.0 µM): 94%
residual activity (DYRK2 (human); compound 0.1 µM): 100%
residual activity (DYRK2 (human); compound 1.0 µM): 95%
residual activity (INSR (human); compound 0.1 µM): 108%
residual activity (INSR (human); compound 1.0 µM): 94%
residual activity (PRKCA (human); compound 0.1 µM): 97%
residual activity (PRKCA (human); compound 1.0 µM): 102%
residual activity (NEK2 (human); compound 0.1 µM): 109%
residual activity (NEK2 (human); compound 1.0 µM): 92%
residual activity (MARK4 (human); compound 0.1 µM): 98%
residual activity (MARK4 (human); compound 1.0 µM): 87%
residual activity (CLK2 (human); compound 0.1 µM): 106%
residual activity (CLK2 (human); compound 1.0 µM): 98%
residual activity (MARK3 (human); compound 0.1 µM): 101%
residual activity (MARK3 (human); compound 1.0 µM): 98%
residual activity (INSRR (human); compound 0.1 µM): 98%
residual activity (INSRR (human); compound 1.0 µM): 103%
Compound: Cc1cccc(-c2nn(C(=S)Nc3ccccc3)cc2-c2ccnc3ccccc23)n1
residual activity (MAPK15 (human); compound 0.1 µM): 108%
residual activity (MAPK15 (human); compound 1.0 µM): 93%

— the kinase profiling compilation of Christmann-Franck et al. (2016)
